Legend:
Type in all cases: biochemical
[1] = molecular target: T1, PDGFR-β kinase (Homo sapiens, UniProt P09619); test: PDGFR-β kinase assay (33P incorporation into Poly(Glu-Tyr)); conditions: 500 nM test compound
T1 construct: recombinant N-terminal 6×His-tagged PDGFR-β kinase domain construct expressed by baculovirus; 6xHis (N); made in house
Protocol: Inhibition of PDGFR-β kinase activity by compounds disclosed herein was quantified by measuring the amount of [^33P] incorporated into the substrate in the presence of a test compound. Briefly, a reaction mixture of 25 μL final volume containing 55 ng of PDGFR-β kinase (obtained by purifying recombinant N-terminal 6×His-tagged PDGFR-β kinase domain construct expressed by baculovirus), 2.5 μg of the substrate (Poly (Glu-Tyr, 4:1, Sigma)), kinase reaction buffer (20 mM MOPS pH 7.0, 1 mM EDTA, 5% glycerol, 0.01% Brij-35, 0.1% β-mercaptoethanol, 1 mg/mL BSA, 2 mM MnCl2, 30 μM ATP, 0.1 μCi per well [^33P]-γ-ATP (2,500-3,000 Ci/mmol)), and a test compound (500 nM, diluted with 4% DMSO) or DMSO (as the control) was incubated at 30° C. for 30 minutes. The reaction was stopped by adding 5 μL of 3% phosphoric acid solution. The resultant reaction solution was then harvested onto a filter plate (UniFilter-96 GF/B, PerkinElmer), washed 20 times for 5 min with d.d. H2O, and followed by the addition of 30 μL of MicroScint™-20 Cocktail (PerkinElmer). The plate was then sealed and counted using a TopCount scintillation detector (PerkinElmer). The percentage of inhibition rate of the test compound was calculated by dividing the retained radioactivity of the test sample with the retained radioactivity of the control sample and shown in Table 3.

[2] = molecular target: T2, Aurora B kinase (Homo sapiens, UniProt Q96GD4); test: Aurora B kinase assay ([γ-33P]ATP, CHOCKtide substrate); conditions: 1.0 μM test compound
T2 construct: purchased Cell signaling
Outline: (§1)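 Recombinant Aurora A (1 ng) or Aurora B (2.5 ng) incubated with test compound, CHOCKtide (1 μg) and [γ-33P]ATP/ATP at 10 μM (Aurora A) or 40 μM (Aurora B), 30 min at 33 °C. Stopped with phosphoric acid; filter-bound 33P counted; IC50 = half-maximal inhibition.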

[3] = molecular target: T3, Aurora A kinase (Homo sapiens, UniProt O14965); test: Aurora A kinase assay ([γ-33P]ATP, CHOCKtide substrate); conditions: for inhibition at 1 µM: 1.0 μM test compound
T3 construct: purchased Upstate
T3 sequence (O14965 1-403): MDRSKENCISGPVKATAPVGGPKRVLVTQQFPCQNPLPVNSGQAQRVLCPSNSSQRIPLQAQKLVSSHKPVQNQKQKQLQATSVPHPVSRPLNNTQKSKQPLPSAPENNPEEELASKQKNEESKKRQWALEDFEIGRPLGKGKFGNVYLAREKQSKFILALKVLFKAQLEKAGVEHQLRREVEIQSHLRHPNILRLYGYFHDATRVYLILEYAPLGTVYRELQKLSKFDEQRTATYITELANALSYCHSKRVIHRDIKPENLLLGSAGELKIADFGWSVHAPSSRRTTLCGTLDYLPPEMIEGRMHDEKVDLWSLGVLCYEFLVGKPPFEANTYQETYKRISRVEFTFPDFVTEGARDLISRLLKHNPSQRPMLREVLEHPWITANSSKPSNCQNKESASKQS
Outline: as §1

[4] = molecular target: T4, c-Met kinase (Homo sapiens, UniProt P08581); test: c-Met kinase assay (33P incorporation into Poly(Glu-Tyr)); conditions: 500 nM test compound
T4 construct: recombinant N-terminal 6×His-tagged c-Met kinase domain construct expressed from baculovirus; 6xHis (N); made in house
Outline: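 Recombinant N-terminal 6×His-tagged c-Met kinase domain (baculovirus-expressed, 5 ng) acted on Poly(Glu-Tyr) 4:1 with 100 μM ATP plus [33P]-γ-ATP in MOPS pH 7.0 buffer, 30 min at 30° C. Compound was at 500 nM. Filter-retained radioactivity was compared with the DMSO control to give percent inhibition.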

T1 sequence (P09619 600-962 limits assumed): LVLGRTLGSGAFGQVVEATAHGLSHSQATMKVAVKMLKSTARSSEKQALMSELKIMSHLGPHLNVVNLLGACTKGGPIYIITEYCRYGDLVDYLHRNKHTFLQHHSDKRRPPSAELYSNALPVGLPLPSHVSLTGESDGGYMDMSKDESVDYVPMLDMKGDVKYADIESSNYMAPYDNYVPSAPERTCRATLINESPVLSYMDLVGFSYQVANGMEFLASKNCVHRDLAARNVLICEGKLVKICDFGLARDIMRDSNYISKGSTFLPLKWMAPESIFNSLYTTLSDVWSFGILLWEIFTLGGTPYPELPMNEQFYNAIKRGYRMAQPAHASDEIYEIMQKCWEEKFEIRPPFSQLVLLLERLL
T4 sequence (P08581 1078-1345 limits assumed): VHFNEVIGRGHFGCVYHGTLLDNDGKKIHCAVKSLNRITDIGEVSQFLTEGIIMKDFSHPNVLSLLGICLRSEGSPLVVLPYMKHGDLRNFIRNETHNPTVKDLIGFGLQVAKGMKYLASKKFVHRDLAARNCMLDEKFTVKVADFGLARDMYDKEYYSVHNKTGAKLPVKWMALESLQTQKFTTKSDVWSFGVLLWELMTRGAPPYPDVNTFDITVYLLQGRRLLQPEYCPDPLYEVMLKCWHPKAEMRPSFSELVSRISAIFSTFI
T2 sequence (Q96GD4 whole entry): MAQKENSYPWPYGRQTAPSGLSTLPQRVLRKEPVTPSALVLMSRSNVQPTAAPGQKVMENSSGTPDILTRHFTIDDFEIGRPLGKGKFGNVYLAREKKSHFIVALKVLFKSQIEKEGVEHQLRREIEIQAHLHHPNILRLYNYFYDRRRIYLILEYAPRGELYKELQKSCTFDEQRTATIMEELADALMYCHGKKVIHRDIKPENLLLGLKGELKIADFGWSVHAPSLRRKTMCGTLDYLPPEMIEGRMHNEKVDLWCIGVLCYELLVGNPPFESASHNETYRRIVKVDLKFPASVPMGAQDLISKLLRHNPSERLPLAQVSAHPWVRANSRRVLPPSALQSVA

| SMILES | inhibition at 0.5 µM [1] [%] | inhibition at 1 µM [2] [%] | IC50 [3] [nM] | inhibition at 1 µM [3] [%] | inhibition at 0.5 µM [4] [%] |
| --- | --- | --- | --- | --- | --- |
| O=C(O)CCc1c(/C=C2\C(=O)Nc3ccc(NS(=O)(=O)c4ccccc4)cc32)[nH]c2c1C(=O)CCCC2 [DCB-70147, (Z)-3-(4-oxo-2-((2-oxo-5-(phenylsulfonamido)indolin-3-ylidene)methyl)-1,4,5,6,7,8-hexahydrocyclohepta[b]pyrrol-3-yl)propanoic acid] | 17.3 | 61.3 | 68.4 | 91.9 | 0.2 |
| CCOC(=O)CCc1c(/C=C2\C(=O)Nc3ccc(NC(=O)Nc4cccc5ccccc45)cc32)[nH]c2c1C(=O)CCC2 [DCB-70129, (Z)-ethyl 3-(2-((5-(3-naphthalen-1-ylureido)-2-oxoindolin-3-ylidene)methyl)-4-oxo-4,5,6,7-tetrahydro-1H-indol-3-yl)propanoate] | 1.4 | 5.8 | – | 15.6 | 5 |
| CCOC(=O)CCc1c(/C=C2\C(=O)Nc3ccc(NC(=O)Nc4ccc(F)cc4)cc32)[nH]c2c1C(=O)CCC2 [DCB-70136, (Z)-ethyl 3-(2-((5-(3-(4-fluorophenyl)ureido)-2-oxoindolin-3-ylidene)methyl)-4-oxo-4,5,6,7-tetrahydro-1H-indol-3-yl)propanoate] | 21.4 | 0.1 | – | 26.4 | -7.7 |
| O=C1Nc2ccc(F)cc2/C1=C/c1[nH]c2c(c1CCC(=O)N1CCOCC1)C(=O)CCC2 [DCB-70125, (Z)-5-fluoro-3-((3-(3-morpholino-3-oxopropyl)-4-oxo-4,5,6,7-tetrahydro-1H-indol-2-yl)methylene)indolin-2-one] | 78.2 | -0.1 | – | 39.7 | 2.9 |
| O=C(O)CCc1c(/C=C2\C(=O)Nc3ccc(F)cc32)[nH]c2c1C(=O)CCC2 [DCB-70055, (Z)-5-fluoro-3-((3-carboxyethyl-4-oxo-4,5,6,7-tetrahydro-1H-indol-2-yl)methylene)indolin-2-one] | 83.5 | 11.6 | 178 | 79.8 | 21.7 |
| CCOC(=O)CCc1c(/C=C2\C(=O)Nc3ccc(-c4cc5ccccc5s4)cc32)[nH]c2c1C(=O)CCC2 [DCB-70069, (Z)-5-(benzo[b]thiophen-2-yl)-3-((3-(3-ethoxy-3-oxopropyl)-4-oxo-4,5,6,7-tetrahydro-1H-indol-2-yl)methylene)indolin-2-one] | 6.8 | -2.6 | – | 16.5 | -38 |
| O=C(O)CCc1c(C=C2C(=S)Nc3cc(Br)ccc32)[nH]c2c1C(=O)CCC2 [DCB-70086, 6-bromo-3-((3-carboxyethyl-4-oxo-4,5,6,7-tetrahydro-1H-indol-2-yl)methylene)indolin-2-thione] | 12.8 | 17.8 | – | 5.8 | 21.6 |
| CCOC(=O)CCc1c(C=C2C(=S)Nc3ccccc32)[nH]c2c1C(=O)CCC2 [DCB-70083, 3-((3-(3-ethoxy-3-oxopropyl)-4-oxo-4,5,6,7-tetrahydro-1H-indol-2-yl)methylene)indolin-2-thione] | 11.6 | 12.8 | – | 13.2 | 29.8 |
| CCOC(=O)CCc1c(/C=C2\C(=O)Nc3ccc(NC(=O)c4ccc([N+](=O)[O-])cc4)cc32)[nH]c2c1C(=O)CCC2 [DCB-70140, (Z)-ethyl 3-(2-((5-(4-nitrobenzamido)-2-oxoindolin-3-ylidene)methyl)-4-oxo-4,5,6,7-tetrahydro-1H-indol-3-yl)propanoate] | 7.5 | 5.2 | – | 31.1 | 9.3 |

Source: patent US7897602B2, “Indolinone compounds as kinase inhibitors” (Development Center for Biotechnology, priority 2009, dated 2011)
